In this assay the target is Phospholipase A2 (Sus scrofa) (UniProt P00592+P04416). As to the kind of experiment: Binding affinity to Sus scrofa (pig) PLA2 isolated from pancreas by isothermal titration calorimetric analysis. Format: protein assay. For orientation: Isothermal titration calorimetry measures the heat released or taken up as one component is titrated into another.

The values that follow come from ChEMBL document CHEMBL3045988, “Computational and thermodynamic analyses of the phospholipase A2 inhibition by erucic acid and linoleic acid” (Med Chem Res, 2013).

SMILES strings stand for the structures.

Phospholipase A2 (Sus scrofa), sequence (P00592 whole entry, looked up): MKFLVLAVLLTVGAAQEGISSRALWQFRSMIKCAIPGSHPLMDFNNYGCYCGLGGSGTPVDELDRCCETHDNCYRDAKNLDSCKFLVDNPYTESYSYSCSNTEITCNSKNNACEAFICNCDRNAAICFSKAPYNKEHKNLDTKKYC
Phospholipase A2 (Sus scrofa), sequence (P04416 whole entry, looked up): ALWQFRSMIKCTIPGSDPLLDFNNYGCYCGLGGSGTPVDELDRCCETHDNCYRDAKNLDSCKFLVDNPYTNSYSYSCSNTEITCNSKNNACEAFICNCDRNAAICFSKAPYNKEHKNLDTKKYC

`CCCCC/C=C\C/C=C\CCCCCCCC(=O)O` registered a K of 1.15 ×10⁴ /M.

On to `CCCCCCCC/C=C\CCCCCCCCCCCC(=O)O`, for which the K was 23.3 ×10⁴ /M.
